# Values quoted from earlier work, collected in patent publication US20120252695A1 (Janssen R&D Ireland, priority 2009, published 2012).
# Test system: HCV
# Settings: carriers of two copies of the advantageous IL28B variant; multi-ethnic population
substance,measurement,value
IFN-α,patients who cleared the virus and remained virus-free 24 weeks post-treatment,approximately 80%
